Measurements as given in patent publication US20050112099A1, “Tumor antigen BFA5 for prevention and / or treatment of cancer” (Aventis Pasteur, Ltd., priority 2003, published 2005).
Where no end group is shown, it is not given here.

Assays:
HLA-A*0201 human T cells = assay: IFN-γ ELISPOT of human T-cell cultures activated with BFA5 peptides; type: cell-based; settings: listing of the peptide is the result
peptide-loaded T2 cells = assay: 51Cr-release CTL assay using peptide-loaded T2 cells; type: cell-based, human; settings: listing of the peptide is the result
[1] = Rabbit immunization with BFA5 peptides, IgG titer; type: in vivo; settings: for IgG titer × 10^5 (after second Immunization): KLH-coupled peptide with Freund's Incomplete Adjuvant, two weeks later; for IgG titer × 10^5 (after first Immunization): peptide emulsion with Freund's Complete Adjuvant
Experimental: Polyclonal antisera were generated against the following series of 22- to 23-mer peptides of BFA5:
Prebleed samples from rabbits were processed and stored at −20° C. Rabbits were immunized as follows: 1) the peptides were administered as an emulsion with Freund's Complete Adjuvant (FCA); and, 2) two weeks later, the peptides were coupled with Keyhole-Limpet Hemocyanin (KLH)-coupled and administered as an emulsion with Freund's Incomplete Adjuvant FIA.

Substance: AELQMTLKL
- BFA5 peptides eliciting high IFN-γ release (>200 spots/100,000 cells) (HLA-A*0201 human T cells; Donor AP10): AELQMTLKL
- BFA5 peptides inducing CTL lysis of pulsed cells (peptide-loaded T2 cells; Donor AP10): AELQMTLKL
- BFA5 peptides inducing CTL lysis of pulsed cells (peptide-loaded T2 cells; Donor AP31): AELQMTLKL

Substance: ALRIQDIEL
- BFA5 peptides eliciting high IFN-γ release (>200 spots/100,000 cells) (HLA-A*0201 human T cells; Donor AP10): ALRIQDIEL

Substance: ATCGMKVSI
- BFA5 peptides eliciting high IFN-γ release (>200 spots/100,000 cells) (HLA-A*0201 human T cells; Donor AP10): ATCGMKVSI
- BFA5 peptides inducing CTL lysis of pulsed cells (peptide-loaded T2 cells; Donor AP10): ATCGMKVSI

Substance: AVYSEILSV
- BFA5 peptides eliciting high IFN-γ release (>200 spots/100,000 cells) (HLA-A*0201 human T cells; Donor AP10): AVYSEILSV

Substance: GVTAEHYAV
- BFA5 peptides eliciting high IFN-γ release (>200 spots/100,000 cells) (HLA-A*0201 human T cells; Donor AP31): GVTAEHYAV

Substance: ILKEKNAEL
- BFA5 peptides eliciting high IFN-γ release (>200 spots/100,000 cells) (HLA-A*0201 human T cells; Donor AP10): ILKEKNAEL
- BFA5 peptides eliciting high IFN-γ release (>200 spots/100,000 cells) (HLA-A*0201 human T cells; Donor AP31): ILKEKNAEL

Substance: KCTALMLAV
- BFA5 peptides eliciting high IFN-γ release (>200 spots/100,000 cells) (HLA-A*0201 human T cells; Donor AP10): KCTALMLAV

Substance: KLH-AENTMLTSKLKEKQDKEILEAEI ({KLH}-AENTMLTSKLKEKQDKEILEAEI) [CLP 2981]
- IgG titer × 10^5 (after second Immunization) ([1]; Rb1): 256 × 10^5
- IgG titer × 10^5 (after first Immunization) ([1]; Rb1): 8 × 10^5
- IgG titer × 10^5 (after second Immunization) ([1]; Rb2): 64 × 10^5
- IgG titer × 10^5 (after first Immunization) ([1]; Rb2): 4 × 10^5

Substance: KLH-DEILPSESKQKDYEENSWDTESL ({KLH}-DEILPSESKQKDYEENSWDTESL) [CLP 2979]
- IgG titer × 10^5 (after second Immunization) ([1]; Rb1): 256 × 10^5
- IgG titer × 10^5 (after first Immunization) ([1]; Rb1): 12 × 10^5
- IgG titer × 10^5 (after second Immunization) ([1]; Rb2): 512 × 10^5
- IgG titer × 10^5 (after first Immunization) ([1]; Rb2): 25 × 10^5

Substance: KLH-MTKRKKTINLNIQDAQKRTALHW ({KLH}-MTKRKKTINLNIQDAQKRTALHW) [CLP 2977]
- IgG titer × 10^5 (after second Immunization) ([1]; Rb1): 256 × 10^5
- IgG titer × 10^5 (after first Immunization) ([1]; Rb1): 25 × 10^5
- IgG titer × 10^5 (after second Immunization) ([1]; Rb2): 64 × 10^5
- IgG titer × 10^5 (after first Immunization) ([1]; Rb2): 6 × 10^5

Substance: KLH-NYNNHLKNRIYQYEKEKAETENS ({KLH}-NYNNHLKNRIYQYEKEKAETENS) [CLP 2982]
- IgG titer × 10^5 (after second Immunization) ([1]; Rb1): 64 × 10^5
- IgG titer × 10^5 (after first Immunization) ([1]; Rb1): 2/2 × 10^5
- IgG titer × 10^5 (after second Immunization) ([1]; Rb2): 32 × 10^5
- IgG titer × 10^5 (after first Immunization) ([1]; Rb2): 2/2 × 10^5

Substance: KLH-RLTLNQEEEKRRNADILNEKIRE ({KLH}-RLTLNQEEEKRRNADILNEKIRE) [CLP 2980]
- IgG titer × 10^5 (after second Immunization) ([1]; Rb1): 1024 × 10^5
- IgG titer × 10^5 (after first Immunization) ([1]; Rb1): 25 × 10^5
- IgG titer × 10^5 (after second Immunization) ([1]; Rb2): 128 × 10^5
- IgG titer × 10^5 (after first Immunization) ([1]; Rb2): 12 × 10^5

Substance: KLH-TSEKFTWPAKGRPRKIAWEKKED ({KLH}-TSEKFTWPAKGRPRKIAWEKKED) [CLP 2978]
- IgG titer × 10^5 (after second Immunization) ([1]; Rb1): 64 × 10^5
- IgG titer × 10^5 (after first Immunization) ([1]; Rb1): 25/25 × 10^5
- IgG titer × 10^5 (after second Immunization) ([1]; Rb2): 256 × 10^5
- IgG titer × 10^5 (after first Immunization) ([1]; Rb2): 25/25 × 10^5

Substance: KSQEPAFHI
- BFA5 peptides eliciting high IFN-γ release (>200 spots/100,000 cells) (HLA-A*0201 human T cells; Donor AP31): KSQEPAFHI

Substance: KVMEINREV
- BFA5 peptides eliciting high IFN-γ release (>200 spots/100,000 cells) (HLA-A*0201 human T cells; Donor AP10): KVMEINREV

Substance: KVSIPTKAL
- BFA5 peptides eliciting high IFN-γ release (>200 spots/100,000 cells) (HLA-A*0201 human T cells; Donor AP10): KVSIPTKAL
- BFA5 peptides inducing CTL lysis of pulsed cells (peptide-loaded T2 cells; Donor AP31): KVSIPTKAL

Substance: MLKKEIAML
- BFA5 peptides eliciting high IFN-γ release (>200 spots/100,000 cells) (HLA-A*0201 human T cells; Donor AP31): MLKKEIAML

Substance: MLKLEIATL
- BFA5 peptides eliciting high IFN-γ release (>200 spots/100,000 cells) (HLA-A*0201 human T cells; Donor AP10): MLKLEIATL
- BFA5 peptides eliciting high IFN-γ release (>200 spots/100,000 cells) (HLA-A*0201 human T cells; Donor AP31): MLKLEIATL
- BFA5 peptides inducing CTL lysis of pulsed cells (peptide-loaded T2 cells; Donor AP31): MLKLEIATL

Substance: NLNYAGDAL
- BFA5 peptides eliciting high IFN-γ release (>200 spots/100,000 cells) (HLA-A*0201 human T cells; Donor AP10): NLNYAGDAL
- BFA5 peptides eliciting high IFN-γ release (>200 spots/100,000 cells) (HLA-A*0201 human T cells; Donor AP31): NLNYAGDAL

Substance: NLVDVYGNM
- BFA5 peptides eliciting high IFN-γ release (>200 spots/100,000 cells) (HLA-A*0201 human T cells; Donor AP10): NLVDVYGNM
- BFA5 peptides inducing CTL lysis of pulsed cells (peptide-loaded T2 cells; Donor AP10): NLVDVYGNM

Substance: QIMEYIRKL
- BFA5 peptides eliciting high IFN-γ release (>200 spots/100,000 cells) (HLA-A*0201 human T cells; Donor AP10): QIMEYIRKL
- BFA5 peptides eliciting high IFN-γ release (>200 spots/100,000 cells) (HLA-A*0201 human T cells; Donor AP31): QIMEYIRKL
- BFA5 peptides inducing CTL lysis of pulsed cells (peptide-loaded T2 cells; Donor AP31): QIMEYIRKL

Substance: QLQSKNMWL
- BFA5 peptides eliciting high IFN-γ release (>200 spots/100,000 cells) (HLA-A*0201 human T cells; Donor AP10): QLQSKNMWL
- BFA5 peptides eliciting high IFN-γ release (>200 spots/100,000 cells) (HLA-A*0201 human T cells; Donor AP31): QLQSKNMWL
- BFA5 peptides inducing CTL lysis of pulsed cells (peptide-loaded T2 cells; Donor AP31): QLQSKNMWL

Substance: SIPTKALEL
- BFA5 peptides eliciting high IFN-γ release (>200 spots/100,000 cells) (HLA-A*0201 human T cells; Donor AP10): SIPTKALEL
- BFA5 peptides inducing CTL lysis of pulsed cells (peptide-loaded T2 cells; Donor AP31): SIPTKALEL

Substance: SLKINLNYA
- BFA5 peptides eliciting high IFN-γ release (>200 spots/100,000 cells) (HLA-A*0201 human T cells; Donor AP10): SLKINLNYA
- BFA5 peptides eliciting high IFN-γ release (>200 spots/100,000 cells) (HLA-A*0201 human T cells; Donor AP31): SLKINLNYA
- BFA5 peptides inducing CTL lysis of pulsed cells (peptide-loaded T2 cells; Donor AP31): SLKINLNYA

Substance: SLSKILDTV
- BFA5 peptides eliciting high IFN-γ release (>200 spots/100,000 cells) (HLA-A*0201 human T cells; Donor AP10): SLSKILDTV
- BFA5 peptides eliciting high IFN-γ release (>200 spots/100,000 cells) (HLA-A*0201 human T cells; Donor AP31): SLSKILDTV
- BFA5 peptides inducing CTL lysis of pulsed cells (peptide-loaded T2 cells; Donor AP31): SLSKILDTV

Substance: SLTPLLLSI
- BFA5 peptides eliciting high IFN-γ release (>200 spots/100,000 cells) (HLA-A*0201 human T cells; Donor AP10): SLTPLLLSI
- BFA5 peptides eliciting high IFN-γ release (>200 spots/100,000 cells) (HLA-A*0201 human T cells; Donor AP31): SLTPLLLSI
- BFA5 peptides inducing CTL lysis of pulsed cells (peptide-loaded T2 cells; Donor AP31): SLTPLLLSI

Substance: SVPNKAFEL
- BFA5 peptides eliciting high IFN-γ release (>200 spots/100,000 cells) (HLA-A*0201 human T cells; Donor AP10): SVPNKAFEL

Substance: SVPNKALEL
- BFA5 peptides eliciting high IFN-γ release (>200 spots/100,000 cells) (HLA-A*0201 human T cells; Donor AP10): SVPNKALEL

Substance: TVSQKDVCL
- BFA5 peptides eliciting high IFN-γ release (>200 spots/100,000 cells) (HLA-A*0201 human T cells; Donor AP10): TVSQKDVCL

Substance: VFAADICGV
- BFA5 peptides eliciting high IFN-γ release (>200 spots/100,000 cells) (HLA-A*0201 human T cells; Donor AP31): VFAADICGV

Substance: VLKKKLSEA
- BFA5 peptides eliciting high IFN-γ release (>200 spots/100,000 cells) (HLA-A*0201 human T cells; Donor AP31): VLKKKLSEA

Substance: YLLHENCML
- BFA5 peptides eliciting high IFN-γ release (>200 spots/100,000 cells) (HLA-A*0201 human T cells; Donor AP10): YLLHENCML
- BFA5 peptides eliciting high IFN-γ release (>200 spots/100,000 cells) (HLA-A*0201 human T cells; Donor AP31): YLLHENCML
- BFA5 peptides inducing CTL lysis of pulsed cells (peptide-loaded T2 cells; Donor AP10): YLLHENCML
